Reference: patent publication US20220117968A1, “THIENO[2,3-D)PYRIMIDINES AND BENZOFURO(3,2-D)PYRIMIDINES AS ANTIMICROBIAL AGENTS” (Saint Louis University, priority 2017, published 2022)
Values after ≈ are worked out from the molar mass of the structure shown.

Experiments:
WT Mtb Erdman strain = assay: Microplate Alamar Blue Assay (MABA); type: cell-based; conditions: Mycobacterium tuberculosis, Middlebrook 7H9 media, 7 days at 37° C., resazurin 24 hours; for MIC50: concentration that inhibits mycobacterial survival by 50%, read-out: MABA MIC50; for MIC90: concentration that inhibits mycobacterial survival by 90%, read-out: MABA MIC90
WT Mtb Erdman = assay: Disk zone of inhibition assay; type: cell-based; conditions: Mycobacterium tuberculosis, 240 h, radius of zone absent of bacterial growth, 5 μl of 100 mM stock in DMSO on disk, Middlebrook 7H10 agar, 10 days at 37° C.

SMILES | MIC50 (WT Mtb Erdman strain) [µM] | MIC90 (WT Mtb Erdman strain) [µM] | zone of inhibition at 100000 µM (stock) (WT Mtb Erdman) [mm]
CCCCNc1nc(C)nc2sc3c(c12)CCCC3 [Example 0881, N-butyl-5-methyl-8-thia-4,6-diazatricyclo[7.4.0.0^2,^7]trideca-1(9),2,4,6-tetraen-3-amine] | 6.45 (≈ 1.78 µg/mL) | 13.4 (≈ 3.69 µg/mL) | 7
CCCCNc1nc(C)nc2c1oc1ccccc12 [Example 0927, N-butyl-4-methyl-8-oxa-3,5-diazatricyclo[7.4.0.0^2,^7]trideca-1(9),2(7),3,5,10,12-hexaen-6-amine] | 1.77 (≈ 0.452 µg/mL) | 4.02 (≈ 1.03 µg/mL) | 10
CCc1nc(NCCCO)c2cc(C)sc2n1 [Example 0936, 3-({2-ethyl-6-methylthieno[2,3-d]pyrimidin-4-yl}amino)propan-1-ol] | 26 (≈ 6.54 µg/mL) | 48.2 (≈ 12.1 µg/mL) | 0.75
CCc1nc(NCCCOC)c2cc(C)sc2n1 [Example 0941, 2-ethyl-N-(3-methoxypropyl)-6-methylthieno[2,3-d]pyrimidin-4-amine] | 7.79 (≈ 2.07 µg/mL) | 16.3 (≈ 4.33 µg/mL) | 4
CCc1nc(N2CCCCC2)c2cc(C)sc2n1 [Example 0942, 1-{2-ethyl-6-methylthieno[2,3-d]pyrimidin-4-yl}piperidine] | 47.5 (≈ 12.4 µg/mL) | > 50 | 5
CCc1nc(N(CC)CC)c2cc(C)sc2n1 [Example 0943, N,N,2-triethyl-6-methylthieno[2,3-d]pyrimidin-4-amine] | > 50 | > 50 | 4
CCc1nc(NC2CC2)c2cc(C)sc2n1 [Example 0946, N-Cyclopropyl-2-ethyl-6-methylthieno[2,3-d]pyrimidin-4-amine] | 0.633 (≈ 0.148 µg/mL) | 2.04 (≈ 0.476 µg/mL) | 27
CCc1nc(NCCOC)c2cc(C)sc2n1 [Example 0950, 2-ethyl-N-(2-methoxyethyl)-6-methylthieno[2,3-d]pyrimidin-4-amine] | 15.9 (≈ 4 µg/mL) | 28.4 (≈ 7.14 µg/mL) | 0
CCc1nc(NC2CCCC2)c2cc(C)sc2n1 [Example 0951, N-cyclopentyl-2-ethyl-6-methylthieno[2,3-d]pyrimidin-4-amine] | > 50 | > 50 | 1
CCc1nc(NC2CCC2)c2cc(C)sc2n1 [Example 1019, N-Cyclobutyl-2-ethyl-6-methylthieno[2,3-d]pyrimidin-4-amine] | 11.1 (≈ 2.75 µg/mL) | 26.4 (≈ 6.53 µg/mL) | 10
CCCCN(C)c1nc(CC)nc2sc(C)cc12 [Example 1021, N-Butyl-2-ethyl-N,6-dimethylthieno[2,3-d]pyrimidin-4-amine] | 3.93 (≈ 1.04 µg/mL) | 9.81 (≈ 2.58 µg/mL) | 10
CCc1nc(NCCC(C)C)c2cc(C)sc2n1 [Example 1022, 2-Ethyl-6-methyl-N-(3-methylbutyl)thieno[2,3-d]pyrimidin-4-amine] | 0.329 (≈ 0.0867 µg/mL) | 0.96 (≈ 0.253 µg/mL) | 14
CCc1nc(N)c2cc(C)sc2n1 [Example 1060, 2-Ethyl-6-methyl-thieno[2,3-d]pyrimidin-4-amine] | 10 (≈ 1.93 µg/mL) | 17.2 (≈ 3.32 µg/mL) | 0
Cc1cc2c(NC3CC3)nc(C(C)C)nc2s1 [Example 1061, N-Cyclopropyl-2-isopropyl-6-methyl-thieno[2,3-d]pyrimidin-4-amine] | 0.615 (≈ 0.152 µg/mL) | 1.28 (≈ 0.317 µg/mL) | 19
CCc1nc(NC(C)(C)C)c2cc(C)sc2n1 [Example 1069, N-tert-Butyl-2-ethyl-6-methyl-thieno[2,3-d]pyrimidin-4-amine] | 30.9 (≈ 7.71 µg/mL) | > 50 | 5
CCc1nc(NCC(F)(F)F)c2cc(C)sc2n1 [Example 1072, 2-Ethyl-6-methyl-N-(2,2,2-trifluoroethyl)thieno[2,3-d]pyrimidin-4-amine] | 6.32 (≈ 1.74 µg/mL) | 19.2 (≈ 5.29 µg/mL) | 9
FC(F)(F)C(F)(F)c1nc(NCCCc2ccccc2)c2ccsc2n1 [Example 1539, 2-(1,1,2,2,2-Pentafluoroethyl)-N-(3-phenylpropyl)thieno[2,3-d]pyrimidin-4-amine] | 4.9 (≈ 1.9 µg/mL) | 7.36 (≈ 2.85 µg/mL) | 
Cc1cc2c(NC3CC3)nc(C(F)(F)F)nc2s1 [Example 1540, N-Cyclopropyl-6-methyl-2-(trifluoromethyl)thieno[2,3-d]pyrimidin-4-amine] | 1.81 (≈ 0.495 µg/mL) | 4.79 (≈ 1.31 µg/mL) | 
Cc1cc2c(NC3CC3)nc(C(F)(F)C(F)(F)F)nc2s1 [Example 1542, N-Cyclopropyl-6-methyl-2-(perfluoroethyl)thieno[2,3-d]pyrimidin-4-amine] | 5.28 (≈ 1.71 µg/mL) | 10.1 (≈ 3.27 µg/mL) | 
FC(F)(F)C(F)(F)c1nc(NC2CC2)c2ccsc2n1 [Example 1543, N-Cyclopropyl-2-(perfluoroethyl)thieno[2,3-d]pyrimidin-4-amine] | 26.9 (≈ 8.32 µg/mL) | 29.6 (≈ 9.15 µg/mL) | 
CCCCNc1nc(C(F)(F)F)nc2sc(C)cc12 [Example 1544, N-Butyl-6-methyl-2-(trifluoromethyl)thieno[2,3-d]pyrimidin-4-amine] | 1.14 (≈ 0.33 µg/mL) | 3.69 (≈ 1.07 µg/mL) | 
CCCCNc1nc(C(F)(F)C(F)(F)F)nc2sc(C)cc12 [Example 1546, N-Butyl-6-methyl-2-(perfluoroethyl)thieno[2,3-d]pyrimidin-4-amine] | 11.2 (≈ 3.8 µg/mL) | 12.4 (≈ 4.21 µg/mL) | 
CCCCNc1nc(C(F)(F)C(F)(F)F)nc2sccc12 [Example 1547, N-Butyl-2-(perfluoroethyl)thieno[2,3-d]pyrimidin-4-amine] | 21.9 (≈ 7.12 µg/mL) | 23.8 (≈ 7.74 µg/mL) | 
FC(F)(F)CCCNc1nc(C(F)(F)F)nc2sccc12 [Example 1548, N-(4,4,4-Trifluorobutyl)-2-(trifluoromethyl)thieno[2,3-d]pyrimidin-4-amine] | 12.3 (≈ 4.05 µg/mL) | 13.7 (≈ 4.51 µg/mL) | 
FC(F)(F)CCCNc1nc(C(F)(F)C(F)(F)F)nc2sccc12 [Example 1549, 2-(Perfluoroethyl)-N-(4,4,4-trifluorobutyl)thieno[2,3-d]pyrimidin-4-amine] | 22.3 (≈ 8.46 µg/mL) | 24.2 (≈ 9.18 µg/mL) | 
Cc1cc2c(NCCCC(F)(F)F)nc(C(F)(F)F)nc2s1 [Example 1551, 6-Methyl-N-(4,4,4-trifluorobutyl)-2-(trifluoromethyl)thieno[2,3-d]pyrimidin-4-amine] | 0.846 (≈ 0.29 µg/mL) | 3.88 (≈ 1.33 µg/mL) | 
CCc1nc(NCCCc2ccccc2)c2c(C)csc2n1 [Example 1698, 2-Ethyl-5-methyl-N-(3-phenylpropyl)thieno[2,3-d]pyrimidin-4-amine] | 0.515 (≈ 0.16 µg/mL) | 3.67 (≈ 1.14 µg/mL) | 
CCc1nc(NCCCC(F)(F)F)c2c(C)csc2n1 [Example 1700, 2-Ethyl-5-methyl-N-(4,4,4-trifluorobutyl)thieno[2,3-d]pyrimidin-4-amine] | 26.8 (≈ 8.13 µg/mL) | 30.7 (≈ 9.31 µg/mL) | 
Cc1cccc(-c2nc(NCCCc3ccccc3)c3c(C)csc3n2)n1 [Example 1709, 5-methyl-2-(6-methylpyridin-2-yl)-N-(3-phenylpropyl)thieno[2,3-d]pyrimidin-4-amine] | 2.56 (≈ 0.959 µg/mL) | 19.7 (≈ 7.38 µg/mL) | 
Cc1cccc(-c2nc(NCCCC(F)(F)F)c3c(C)csc3n2)n1 [Example 1711, 5-methyl-2-(6-methylpyridin-2-yl)-N-(4,4,4-trifluorobutyl)thieno[2,3-d]pyrimidin-4-amine] | 6.48 (≈ 2.37 µg/mL) | 19.4 (≈ 7.11 µg/mL) | 
